The experiment has as its system Acinetobacter baumannii ATCC17961. Description: Antimicrobial susceptibility testing: 90% growth inhibitory concentration (IC90) determination in Iso-Sensitest broth, OD600 growth. It counts as cell-based. The essentials:
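Growth monitored at 600 nm every 20 min for 16 h at 35±2 °C, inoculum ~5×10^(5) CFU/ml in Iso-Sensitest medium. Compounds in 10-point twofold series, e.g. 50 to 0.097 μM final; 90% inhibitory concentration taken from log-phase growth.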

Where [1] appears, read: Acinetobacter baumannii, ATCC17961, 16 h, strain ATCC 17961, OD600 growth over 16 h, read-out: A. baumannii ATCC 17961 IC90.
Where [2] appears, read: Acinetobacter baumannii, ATCC17961, 16 h, read-out: A. baumannii ATCC 17961 IC90 (uM), strain ATCC 17961, OD600 growth over 16 h.

Consider 17 compounds from patent US20230203043A1, “NOVEL IMIDAZOPYRAZINE DERIVATIVES” (Hoffmann-La Roche Inc., priority 2020, published 2023).

Structures are written as SMILES. Structures can show the parent of a compound that is named as a salt. Where two headings read alike, the source gives them in different places.

In the case of `NCC(=O)N1CCN(C(=O)c2ccc(Nc3nccn4c(-c5cn(CC6CC6)nc5C(F)(F)F)cnc34)cc2F)CC1` [Example 814, 2-amino-1-(4-(4-((3-(1-(cyclopropyl-methyl)-3-(trifluoromethyl)-1H-pyrazol-4-yl)imidazo[1,2-a]pyrazin-8-yl)amino)-2-fluorobenzoyl)piperazin-1-yl)ethan-1-one hydrochloride], the 90% effect concentration (IC90) (commonly the point of the concentration-response curve where the effect stands at 90%) under setting [1] turned out to be 0.14 µM. `CCc1cc(Nc2nccn3c(-c4cn(CC5CCC5)nc4C(F)(F)F)cnc23)ccc1C(=O)NCCOCCN` [Example 303, N-[2-(2-aminoethoxy)ethyl]-4-[[3-[1-(cyclobutylmethyl)-3-(trifluoromethyl)pyrazol-4-yl]imidazo[1,2-a]pyrazin-8-yl]amino]-2-ethylbenzamide formate]: the IC90 under setting [2] came to 0.201 µM. Still for that read-out and setting: as for `C[C@@H](NC(=O)c1ccc(Nc2nccn3c(-c4c[nH]nc4C(F)(F)F)cnc23)cc1Cl)C(=O)N1CC[C@@H](N)C1` [Example 97, N-[(2R)-1-[(3R)-3-aminopyrrolidin-1-yl]-1-oxopropan-2-yl]-2-chloro-4-[[3-[3-(trifluoromethyl)-1H-pyrazol-4-yl]imidazo[1,2-a]pyrazin-8-yl]amino]benzamide formate], the figure is 1.7 µM.

With `CCc1cc(Nc2nccn3c(-c4cn(CC(N)=O)nc4C(F)(F)F)cnc23)ccc1C(=O)NCCCNC(=O)[C@@H]1CCCN1` [Example 789, (S)-N-(3-(4-((3-(1-(2-amino-2-oxoethyl)-3-(trifluoromethyl)-1H-pyrazol-4-yl)imidazo [1,2-a]pyrazin-8-yl)amino)-2-ethylbenzamido)propyl)pyrrolidine-2-carboxamide], under setting [1], the concentration for an effect of 90% (IC90) is 1.61 µM. Turning to `CCc1cc(Nc2nccn3c(-c4c[nH]nc4C(F)(F)F)cnc23)ccc1C(=O)NCCCN` [Example 365, N-(3-aminopropyl)-2-ethyl-4-[[3-[3-(trifluoromethyl)-1H-pyrazol-4-yl]imidazo[1,2-a]pyrazin-8-yl]amino]benzamide hydrochloride], the IC90 under setting [1] was found to be 1.4 µM. As for `O=C(CC1CCNCC1)N1CCN(C(=O)c2ccc(Nc3nccn4c(-c5c[nH]nc5C(F)(F)F)cnc34)cc2Cl)CC1` [Example 570, 1-(4-(2-chloro-4-((3-(3-(trifluoromethyl)-1H-pyrazol-4-yl)imidazo[1,2-a]pyrazin-8-yl)amino)benzoyl)piperazin-1-yl)-2-(piperidin-4-yl) ethan-1-one formate], under setting [2], the IC90 came to 0.256 µM. Regarding `C#CCn1cc(-c2cnc3c(Nc4ccc(C(=O)N[C@H](C)CNC(=O)OC(C)(C)C)c(CC)c4)nccn23)c(C(F)(F)F)n1` [Example 128, tert-butyl N-[(2R)-2-[[2-ethyl-4-[[3-[1-prop-2-ynyl-3-(trifluoromethyl)pyrazol-4-yl]imidazo[1,2-a]pyrazin-8-yl]amino]benzoyl]amino]propyl] carbamate], the IC90 (strain ATCC 17961, OD600 growth over 16 h, read-out: A. baumannii ATCC 17961 IC90) stood at 0.659 µM.

In the case of `CCc1cc(Nc2nccn3c(-c4cn(CC#N)nc4C(F)(F)F)cnc23)ccc1C(=O)NCC(=O)N1CCCC(N)C1` (centres unmarked) [Example 506, N-[2-(3-amino-1-piperidyl)-2-oxo-ethyl]-4-[[3-[1-(cyanomethyl)-3-(trifluoromethyl)pyrazol-4-yl]imidazo[1,2-a]pyrazin-8-yl]amino]-2-ethyl-benzamide formate], under setting [2], the concentration for an effect of 90% (IC90) turned out to be 0.191 µM. The same measure, in the same setting: as for `CCc1cc(Nc2nccn3c(-c4cn(CC(F)F)nc4C(F)(F)F)cnc23)ccc1C(=O)NCCCNC(=O)[C@@H]1CC[C@H](N)C1` [Example 543, N-(3-((1R,3S)-3-aminocyclopentane-1-carboxamido)propyl)-4-((3-(1-(2,2-difluoroethyl)-3-(trifluoromethyl)-1H-pyrazol-4-yl)imidazo[1,2-a]pyrazin-8-yl)amino)-2-ethylbenzamide formate], the figure is 0.162 µM. Regarding `CCc1cc(Nc2nccn3c(-c4cn(CC(F)F)nc4C(F)(F)F)cnc23)ccc1C(=O)NCC(=O)N[C@H]1CCNC1` [Example 638, 4-[[3-[1-(2,2-difluoroethyl)-3-(trifluoromethyl)pyrazol-4-yl]imidazo[1,2-a]pyrazin-8-yl]amino]-2-ethyl-N-[2-oxo-2-[[(3S)-pyrrolidin-3-yl]amino]ethyl] benzamide formate], the concentration for an effect of 90% (IC90) under setting [1] turned out to be 0.226 µM. Consider `Cc1cc(Nc2nccn3c(-c4cn(CC#N)nc4C(F)(F)F)cnc23)ccc1C(=O)N[C@H](C)C(=O)N1CCNCC1` [Example 726, 4-[[3-[1-(cyanomethyl)-3-(trifluoromethyl)pyrazol-4-yl]imidazo[1,2-a]pyrazin-8-yl]amino]-2-methyl-N-[(1R)-1-methyl-2-oxo-2-piperazin-1-yl-ethyl]benzamide formate], for which, under setting [2], the IC90 is 0.463 µM. In the case of `C[C@@H](N)C(=O)N1CCN(C(=O)c2ccc(Nc3nccn4c(-c5c[nH]nc5C(F)(F)F)cnc34)cc2Cl)CC1` [Example 207, (2R)-2-amino-1-[4-[2-chloro-4-[[3-[3-(trifluoromethyl)-1H-pyrazol-4-yl]imidazo[1,2-a]pyrazin-8-yl]amino]benzoyl]piperazin-1-yl]propan-1-one], under setting [1], the IC90 was determined as 0.205 µM.

In the case of `Cc1cc(Nc2nccn3c(-c4cn(CC#N)nc4C(F)(F)F)cnc23)ccc1C(=O)N[C@H](C)C(=O)NC1CC(N)C1` (stereo partly drawn) [Example 725, N-[(1R)-2[(3-aminocyclobutyl)amino]-1-methyl-2-oxo-ethyl]-4-[[3-[1-(cyanomethyl)-3-(trifluoromethyl)pyrazol-4-yl]imidazo[1,2-a]pyrazin-8-yl]amino]-2-methyl-benzamide formate], the concentration for an effect of 90% (IC90) under setting [2] turned out to be 0.462 µM. For `O=C(N[C@H]1CCNC1)N1CCN(C(=O)c2ccc(Nc3nccn4c(-c5c[nH]nc5C(F)(F)F)cnc34)cc2Cl)CC1` [Example 389, 4-[2-chloro-4-[[3-[3-(trifluoromethyl)-1H-pyrazol-4-yl]imidazo[1,2-a]pyrazin-8-yl]amino]benzoyl]-N-[(3S)-pyrrolidin-3-yl]piperazine-1-carboxamide formate], the IC90 under setting [2] was 0.136 µM. On the same count and under the same terms, next, `N#CCn1cc(-c2cnc3c(Nc4ccc(C(=O)NCC(=O)N[C@H]5CCNC5)c(Cl)c4)nccn23)c(C(F)(F)F)n1` [Example 731, 2-chloro-4-[[3-[1-(cyanomethyl)-3-(trifluoromethyl)pyrazol-4-yl]imidazo[1,2-a]pyrazin-8-yl]amino]-N-[2-oxo-2-[[(3S)-pyrrolidin-3-yl]amino]ethyl]benzamide formate]: 0.476 µM. As for `O=C(NC1CNC1)N1CCN(C(=O)c2ccc(Nc3nccn4c(-c5cn(CC(F)F)nc5C(F)(F)F)cnc34)cc2Cl)CC1` [Example 581, N-(azetidin-3-yl)-4-(2-chloro-4-((3-(1-(2,2-difluoroethyl)-3-(trifluoromethyl)-1H-pyrazol-4-yl)imidazo[1,2-a]pyrazin-8-yl)amino)benzoyl) piperazine-1-carboxamide formate], the IC90 under setting [1] was 0.354 µM. In the case of `CCc1cc(Nc2nccn3c(-c4cn(C5CCC5)nc4C(F)(F)F)cnc23)ccc1C(=O)NCCOCCN1CCCC1` [Example 619, 4-((3-(1-cyclobutyl-3-(trifluoromethyl)-1H-pyrazol-4-yl)imidazo[1,2-a]pyrazin-8-yl)amino)-2-ethyl-N-(2-(2-(pyrrolidin-1-yl)ethoxy)ethyl)benzamide formate], the concentration for an effect of 90% (IC90) under setting [2] was 0.131 µM.
